Assays:
[1] = biological target: human AChE (Homo sapiens, UniProt P22303); assay: Inhibition of human AChE, modified Ellman assay; assay type: biochemical; details: racemic (±) synthetic compounds
[2] = biological target: acetyl cholinesterase (AChE) from the brown plant hopper; details: natural product; cited from earlier work
[3] = biological target: acetyl cholinesterase (AChE) from the housefly (CSMA strain); details: natural product; cited from earlier work

human AChE, sequence (P22303 32-614): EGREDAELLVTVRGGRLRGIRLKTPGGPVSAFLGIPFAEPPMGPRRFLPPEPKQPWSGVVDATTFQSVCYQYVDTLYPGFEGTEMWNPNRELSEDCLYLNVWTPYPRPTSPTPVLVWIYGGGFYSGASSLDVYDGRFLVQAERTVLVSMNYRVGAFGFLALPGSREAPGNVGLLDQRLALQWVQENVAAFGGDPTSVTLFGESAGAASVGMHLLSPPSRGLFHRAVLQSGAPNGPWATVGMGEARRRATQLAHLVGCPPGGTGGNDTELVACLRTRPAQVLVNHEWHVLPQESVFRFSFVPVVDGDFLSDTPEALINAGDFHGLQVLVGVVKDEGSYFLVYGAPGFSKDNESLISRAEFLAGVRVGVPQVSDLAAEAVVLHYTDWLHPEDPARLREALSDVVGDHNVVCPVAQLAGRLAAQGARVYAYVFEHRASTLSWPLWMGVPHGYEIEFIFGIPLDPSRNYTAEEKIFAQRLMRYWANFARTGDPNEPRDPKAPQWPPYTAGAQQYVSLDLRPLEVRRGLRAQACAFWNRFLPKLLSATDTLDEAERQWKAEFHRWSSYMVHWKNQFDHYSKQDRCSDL

CO[P@]1(=O)OC[C@H]2COC(=O)C2=C(C)O1 [compound 1, Cyclophostin]
IC50 [1]: ~40 nM
IC50 [2]: 0.76 nM
IC50 [3]: 0.76 nM

From article PMC3129627 (Organic letters, 2011)
